This is an account of results in patent US10064888B2, “Pectin based nanoparticles” (TECHNION RESEARCH & DEVELOPMENT FOUNDATION LTD., priority 2013, dated 2018).

This series can be described thus: Residual curcumin during simulated shelf life, absorbance at 415 nm. It is filed as physicochemical. The conditions noted are these: over a period of 11 days, with respect to time 0. On the procedure:
FIG. 3. Is a graph depicting the SBP protective effect. Residual percentage of curcumin (with respect to time 0) during simulated shelf life, without and with protection by SBP. Curcumin was determined by absorbance at 415 nm (maximal absorbance of curcumin) as determined by a UV-Visible light spectrophotometer.

Regarding `COc1cc(/C=C/C(=O)CC(=O)/C=C/c2ccc(O)c(OC)c2)ccc1O` [curcumin], the “decrease of curcumin during simulated shelf life” value was “approximately 40%”.
